Assay results as given in patent publication US20260191852A1, “COMBINATION OF SUBSTITUTED 2,4 DIAMINO-QUINOLINE COMPOUNDS AND MEK INHIBITORS FOR USE IN THE TREATMENT OF LIVER CANCERS” (GENFIT, priority 2022, published 2026).
Where a name gives a salt, the structure may show the parent alone. Read-outs that look alike come from different tables or passages of the source.

Columns and labels:
[1] = system: intrahepatic cholangiocarcinoma cell line HuCCT1 (KRAS G12D)
Protocol: (§1) Cell culture: HuCCT1 cell line harboring KRAS G12D mutation (JCRB Cell Bank #JCRB0425) was maintained in RPMI medium (Dutscher #L0498-500) containing 1% penicillin streptomycin (Dutscher #P06-07100) and 10% fetal bovine serum (Dutscher #SV30160.03C) and were cultured at 37° C. with 5% CO2 in humidified cells incubator.
(§2) HuCCT1 cells were plated at 4.10^3 cells per well in Greiner Bio-one pClear® P96 well plates (Dutscher #655098) with 80 μL of culture media. […] Cell viability was assessed 72 hours post molecular treatment by CellTiter-Glo® luminescent cell viability assay (Promega #G7573) according to the manufacturer protocol and using an Infinity F200 Pro luminometer (Tecan). […] IC50 values were determined as the dose of compound required to reduce luminescent values to 50% of the reference signal obtained for untreated cell cultures. Raw data were analyzed using GraphPad Prism Software v9.4 (GraphPad Software, Inc. La Jolla, CA). For all experiments, analyzed data are shown as mean of triplicate and four independent experiments.

[2] = system: intrahepatic cholangiocarcinoma cell line HuCCT1 (KRAS G12D); assay: HuCCT1 cell viability assay (CellTiter-Glo), single compounds, 72 hours; settings: for IC50: Homo sapiens, HuCCT-1, 72 h, read-out: Cell Viability assay IC50
Protocol: as §1, §2

[3] = system: intrahepatic cholangiocarcinoma cell line HuCCT1 (KRAS G12D); assay: Combination effect of binary drug-drug associations on HuCCT1 cell viability, Loewe additivity model (SynergyFinder); type: cell-based; settings: growth inhibition of HuCCT1
Protocol: The HuCCT1 cell viability assay with binary drug-drug association was performed as described in example 1. The drug-drug binary associations of compounds 2-2+Trametinib and HCQ+Trametinib were tested in a checkerboard fashion in Greiner Bio-one pClear® 96-well plates (Dutscher #655098). The concentration ranges were selected nearby and surrounding the IC50 values of each individual compound. Compound 2-2 in combination with Trametinib was tested at 1.28 μM, 1.6 μM, 2.0 μM, 2.5 μM and 3.125 μM. HCQ [747-36-4] in combination with Trametinib was tested at 15 μM, 20 μM, 30 μM, 45 μM, 60 μM. […] The combination effects of both binary drug-drug association compound 2-2+Trametinib and HCQ+Trametinib were analyzed with two softwares: MacSynergy™ II (1) and SynergyFinder. […]
The combination effects of the drug-drug associations of compound 2-2+Trametinib (Table 2) and HCQ+Trametinib (Table 3) were evaluated according to the Loewe additivity model using SynergyFinder for their respective capacities to inhibit the growth of intra-hepatic cholangiocarcinoma cell line HuCCT1.
The HuCCT1 cell viability assay with binary drug-drug association was performed as described in example 1. […] The combination effects of both binary drug-drug association compound 2-2+Cobimetinib and HCQ+Cobimetinib were analyzed with two softwares: MacSynergy™ II (1) and SynergyFinder (2). […]

[4] = system: intrahepatic cholangiocarcinoma cell line HuCCT1 (KRAS G12D); assay: Combination effect of binary drug-drug associations on HuCCT1 cell viability, Bliss independence model (MacSynergy II); type: cell-based; settings: growth inhibition of HuCCT1
Protocol: The HuCCT1 cell viability assay with binary drug-drug association was performed as described in example 1. The drug-drug binary associations of compounds 2-2+Trametinib and HCQ+Trametinib were tested in a checkerboard fashion in Greiner Bio-one pClear® 96-well plates (Dutscher #655098). The concentration ranges were selected nearby and surrounding the IC50 values of each individual compound. Compound 2-2 in combination with Trametinib was tested at 1.28 μM, 1.6 μM, 2.0 μM, 2.5 μM and 3.125 μM. HCQ [747-36-4] in combination with Trametinib was tested at 15 μM, 20 μM, 30 μM, 45 μM, 60 μM. Trametinib (Selleckchem #S2673, [871700-17-3]) in combination with compound 2-2 or in combination with HCQ was tested in both cases at 0.005 μM, 0.03 μM, 6.0 μM, 15 μM, 30 μM, 60 μM, 90 μM. The combination effects of both binary drug-drug association compound 2-2+Trametinib and HCQ+Trametinib were analyzed with two softwares: MacSynergy™ II (1) and SynergyFinder. (2) MacSynergy™ II was used to analyze the combination effect according to the Bliss independence model which assumes probabilistic statistical independence between the combined compounds.(3) The main assumption of the Bliss independence principle is that two or more combined drugs act independently from each other with distinct mode of action. SynergyFinder was used to analyze the combination effect according to the Loewe additivity model which is based on its principle of a sham drug-drug combination which assumes no interaction when a compound is combined with itself.(4)
The combination effects of the drug-drug associations of compound 2-2+Trametinib and hydroxychloroquine+Trametinib were evaluated according to the Bliss independence model using MacSynergy™ II for their respective capacities to inhibit the growth of intrahepatic cholangiocarcinoma cell line HuCCT1 (Table 4).
The HuCCT1 cell viability assay with binary drug-drug association was performed as described in example 1. The binary drug-drug associations of compounds 2-2+Cobimetinib and HCQ+Cobimetinib were tested in a checkerboard fashion in Greiner Bio-one pClear® 96-well plates (Dutscher #655098). The concentration ranges were selected nearby and surrounding the IC50 values of each individual compound. Compound 2-2 in combination with Cobimetinib was tested at 1.28 μM, 1.6 μM, 2.0 μM, 2.5 μM and 3.125 μM. HCQ [747-36-4] in combination with Cobimetinib was tested at 15 μM, 20 μM, 30 μM, 45 μM, 60 μM. Cobimetinib (Selleckchem #S8041, [934660-93-2]) in combination with compound 2-2 or in combination with HCQ was tested in both cases at 0.10 μM, 1.0 μM, 10 μM, 30 μM, 60 μM, 80 μM, 100 μM. The combination effects of both binary drug-drug association compound 2-2+Cobimetinib and HCQ+Cobimetinib were analyzed with two softwares: MacSynergy™ II (1) and SynergyFinder (2). […]
The combination effects of the binary drug-drug associations of compound 2-2+Cobimetinib and hydroxychloroquine+Cobimetinib were evaluated according to the Bliss independence model using MacSynergy™ II for their respective capacities to inhibit the growth of intrahepatic cholangiocarcinoma cell line HuCCT1 (Table 7).

Compound | cytotoxic activity against HuCCT1 [1] | IC50 [2] [nM] | combination effect when associated with Cobimetinib, Loewe model [3] | combination effect when associated with Cobimetinib, Bliss model [4] | combination effect when associated with Trametinib [4] | combination effect when associated with a MEK inhibitor (e.g., Trametinib, Cobimetinib), Bliss independence model [4] | cytotoxic activity against HuCCT1 ([2]; HuCCT1, 72 hours)
O=C(c1ccc(F)c(F)c1Nc1ccc(I)cc1F)N1CC(O)([C@@H]2CCCCN2)C1 [Cobimetinib] | dose-response cytotoxic activity | 1200 ± 800 | – | – | – | – | –
CC(C)(C)NC1CCN(c2cc(NCc3ccc(Cl)cc3)nc3ccccc23)CC1 [Compound 2-2, 2-(4-chlorobenzylamino)-4-(4-tert-butylaminopiperidin-1-yl)-quinoline] | – | 2200 ± 200 | overall additive effect | significant synergy combination effect | significant synergy combination effect | significant synergy combination effect | dose-response cytotoxic activity
CC(=O)Nc1cccc(-n2c(=O)n(C3CC3)c(=O)c3c(Nc4ccc(I)cc4F)n(C)c(=O)c(C)c32)c1 [Trametinib] | dose-response cytotoxic activity | 310 ± 260 | – | – | – | – | –
CCN(CCO)CCCC(C)Nc1ccnc2cc(Cl)ccc12 (stereo not drawn) [Hydroxychloroquine, hydroxychloroquine sulfate] | dose-response cytotoxic activity | 27200 ± 1200 | overall additive effect | minor synergy without significant impact in vivo | only an additive effect | – | –
